From ChEMBL document CHEMBL1136014 (J Med Chem, 2002)

Legend:
Cavia porcellus [1] = assay: Action potential duration at 90% levels of repolarization in guinea pig papillary muscles after twenty days of daily i.p. injection of 40 mg/kg Control = 186); type: functional, Muscle tissue; conditions: route intraperitoneal
Rattus norvegicus [2] = assay: Effects on liver was determined from serum alanine aminotransferase levels in male (5) rats after 2 weeks of daily oral administration of compound at 100 mg/kg (Control = 30+/-3); type: functional
CHO-K1 [3] = assay: Agonism of compound towards thyroid response element (TRAF alpha) in CHO-K1 cells; type: functional, cell-based; conditions: Cricetulus griseus
Cavia porcellus [4] = assay: Effective refractory period in guinea pig papillary muscles after twenty days of daily i.p. injection of 40 mg/kg Control = 201); type: functional, Muscle tissue; conditions: route intraperitoneal
Rattus norvegicus [5] = assay: Effects on liver was determined from serum aspartate aminotransferase levels in female (5) rats after 2 weeks of daily oral administration of compound at 100 mg/kg (Control = 106+/-18); type: functional
Rattus norvegicus [6] = assay: Effects on liver was determined from serum cholesterol levels in male (5) rats after 2 weeks of daily oral administration of compound at 30 mg/kg (Control = 0.67+/-0.13); type: functional
Rattus norvegicus [7] = assay: Effects on liver was determined from serum cholesterol levels in male (5) rats after 2 weeks of daily oral administration of compound at 100 mg/kg (Control = 0.67+/-0.13); type: functional
Cavia porcellus [8] = assay: Action potential duration at 50% levels of repolarization in guinea pig papillary muscles after twenty days of daily i.p. injection of 40 mg/kg (Control = 168); type: functional, Muscle tissue; conditions: route intraperitoneal
Rattus norvegicus [9] = assay: Serum concentrations of Thyrotropin in rats after 2 weeks of daily oral administration of compound at 100 mg/kg (Control = 11.00+/-1.97); type: functional
Rattus norvegicus [10] = assay: Serum concentrations of T4 in rats after 2 weeks of daily oral administration of compound at 100 mg/kg (Control = 33.1+/-5.00); type: functional
Rattus norvegicus [11] = assay: Serum concentrations of T4 in rats after 2 weeks of daily oral administration of compound at 30 mg/kg (Control = 33.1+/-5.00); type: functional
CHO-K1 [12] = assay: Antagonism of compound towards thyroid response element (TRAF alpha) in CHO-K1 cells; conditions: Cricetulus griseus
Rattus norvegicus [13] = assay: Effects on liver was determined from serum alanine aminotransferase levels in female (5) rats after 2 weeks of daily oral administration of compound at 300 mg/kg (Control = 23+/-5); type: functional
CHO-K1 [14] = assay: Agonism of compound towards thyroid response element (TRAF beta) in CHO-K1 cells; type: functional, cell-based; conditions: Cricetulus griseus
Rattus norvegicus [15] = assay: Effects on liver was determined from serum alanine aminotransferase levels in male (5) rats after 2 weeks of daily oral administration of compound at 300 mg/kg (Control = 30+/-3); type: functional
Rattus norvegicus [16] = assay: Effects on liver was determined from serum alanine aminotransferase levels in male (5) rats after 2 weeks of daily oral administration of compound at 30 mg/kg (Control = 30+/-3); type: functional
Rattus norvegicus [17] = assay: Serum concentrations of T3 in rats after 2 weeks of daily oral administration of compound at 30 mg/kg (Control = 0.74+/-0.15); type: functional
Rattus norvegicus [18] = assay: Serum concentrations of T3 in rats after 2 weeks of daily oral administration of compound at 300 mg/kg (Control = 0.74+/-0.15); type: functional
[19] = target: T1, Thyroid hormone receptor alpha (Homo sapiens, UniProt P10827)
T1 sequence (P10827 whole entry): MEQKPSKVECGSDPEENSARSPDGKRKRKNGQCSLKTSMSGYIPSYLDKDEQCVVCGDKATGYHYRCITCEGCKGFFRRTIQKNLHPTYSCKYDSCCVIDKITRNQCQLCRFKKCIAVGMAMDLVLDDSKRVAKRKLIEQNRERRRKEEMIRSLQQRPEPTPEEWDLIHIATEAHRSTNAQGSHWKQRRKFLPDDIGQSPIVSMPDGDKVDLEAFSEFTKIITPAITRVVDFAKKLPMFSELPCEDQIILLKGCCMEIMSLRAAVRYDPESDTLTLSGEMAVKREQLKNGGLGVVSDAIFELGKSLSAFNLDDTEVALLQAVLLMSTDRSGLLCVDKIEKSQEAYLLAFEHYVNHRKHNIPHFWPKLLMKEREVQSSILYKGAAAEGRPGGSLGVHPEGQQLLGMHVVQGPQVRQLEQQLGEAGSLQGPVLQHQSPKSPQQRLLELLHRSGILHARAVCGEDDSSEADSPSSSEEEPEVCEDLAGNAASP
Description: Concentration required to inhibit 50% of binding of [125I]-T3 to human Thyroid hormone receptor alpha-1 in CHO-K1 cells

Rattus norvegicus [20] = assay: Effects on liver was determined from serum aspartate aminotransferase levels in male (5) rats after 2 weeks of daily oral administration of compound at 100 mg/kg (Control = 111+/-21); type: functional
Rattus norvegicus [21] = assay: Serum concentrations of T3 in rats after 2 weeks of daily oral administration of compound at 100 mg/kg (Control = 0.74+/-0.15); type: functional
Rattus norvegicus [22] = assay: Effects on liver was determined from serum cholesterol levels in female (5) rats after 2 weeks of daily oral administration of compound at 300 mg/kg (Control = 0.73+/-0.05); type: functional
CHO-K1 [23] = assay: Antagonism of compound towards thyroid response element (TRAF beta) in CHO-K1 cells; conditions: Cricetulus griseus
Cavia porcellus [24] = assay: Vmax of the action potential amplitude in guinea pig papillary muscles after twenty days of daily i.p. injection of 40 mg/kg Control = 205); type: functional; design: dose 40 mg/kg; conditions: Muscle tissue
Rattus norvegicus [25] = assay: Effects on liver was determined from serum aspartate aminotransferase levels in male (5) rats after 2 weeks of daily oral administration of compound at 300 mg/kg (Control = 111+/-21); type: functional
Rattus norvegicus [26] = assay: Effects on liver was determined from serum cholesterol levels in female (5) rats after 2 weeks of daily oral administration of compound at 100 mg/kg (Control = 0.73+/-0.05); type: functional
Cavia porcellus [27] = assay: Ratio of action potential duration (APD90/APD50) in guinea pig papillary muscles after twenty days of daily i.p. injection of 40 mg/kg Control = 1.10); type: functional, Papillary muscle; conditions: route intraperitoneal
Rattus norvegicus [28] = assay: Serum concentrations of Thyrotropin in rats after 2 weeks of daily oral administration of compound at 300 mg/kg (Control = 11.00+/-1.97); type: functional
Rattus norvegicus [29] = assay: Effects on liver was determined from serum alanine aminotransferase levels in female (5) rats after 2 weeks of daily oral administration of compound at 30 mg/kg (Control = 23+/-5); type: functional
Rattus norvegicus [30] = assay: Serum concentrations of T4 in rats after 2 weeks of daily oral administration of compound at 300 mg/kg (Control = 33.1+/-5.00); type: functional
Rattus norvegicus [31] = assay: Effects on liver was determined from serum aspartate aminotransferase levels in female (5) rats after 2 weeks of daily oral administration of compound at 30 mg/kg (Control = 106+/-18); type: functional
Rattus norvegicus [32] = assay: Effects on liver was determined from serum alanine aminotransferase levels in female (5) rats after 2 weeks of daily oral administration of compound at 100 mg/kg (Control = 23+/-5); type: functional
Rattus norvegicus [33] = assay: Effects on liver was determined from serum aspartate aminotransferase levels in male (5) rats after 2 weeks of daily oral administration of compound at 30 mg/kg (Control = 111+/-21); type: functional
Rattus norvegicus [34] = assay: Effects on liver was determined from serum aspartate aminotransferase levels in female (5) rats after 2 weeks of daily oral administration of compound at 300 mg/kg (Control = 106+/-18); type: functional
Rattus norvegicus [35] = assay: Effects on liver was determined from serum cholesterol levels in male (5) rats after 2 weeks of daily oral administration of compound at 300 mg/kg (Control = 0.67+/-0.13); type: functional
Cavia porcellus [36] = assay: Action potential amplitude of compound on guinea pig papillary muscles after twenty days of daily i.p. injection of 40 mg/kg Control = 115); type: functional, Muscle tissue; conditions: route intraperitoneal
Rattus norvegicus [37] = assay: Effects on liver was determined from serum cholesterol levels in female (5) rats after 2 weeks of daily oral administration of compound at 30 mg/kg (Control = 0.73+/-0.05); type: functional
Rattus norvegicus [38] = assay: Serum concentrations of Thyrotropin in rats after 2 weeks of daily oral administration of compound at 30 mg/kg (Control = 11.00+/-1.97); type: functional
[39] = target: T2, Thyroid hormone receptor beta (Homo sapiens, UniProt P10828)
T2 sequence (P10828 whole entry): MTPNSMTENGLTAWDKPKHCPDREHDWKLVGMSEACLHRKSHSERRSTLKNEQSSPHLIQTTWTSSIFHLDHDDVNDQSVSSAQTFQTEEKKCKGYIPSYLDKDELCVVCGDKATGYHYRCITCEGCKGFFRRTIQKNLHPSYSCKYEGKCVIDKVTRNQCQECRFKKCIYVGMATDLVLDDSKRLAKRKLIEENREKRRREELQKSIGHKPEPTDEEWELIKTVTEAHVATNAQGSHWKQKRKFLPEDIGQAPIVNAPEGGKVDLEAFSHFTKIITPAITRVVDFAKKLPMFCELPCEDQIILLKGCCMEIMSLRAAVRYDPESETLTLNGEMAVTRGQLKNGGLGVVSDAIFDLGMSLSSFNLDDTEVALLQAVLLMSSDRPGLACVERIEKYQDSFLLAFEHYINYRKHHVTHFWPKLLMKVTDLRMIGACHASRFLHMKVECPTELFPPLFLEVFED
Description: Concentration required to inhibit 50% of binding of [125I]T3 to human Thyroid hormone receptor beta 1 in CHO-K1 cells

[40] = target: L-type Ca2+ channel, dihydropyridine site (Rattus norvegicus, UniProt P22002+P27732+Q02485); assay: Percentage inhibition of [3H]nitrendipine binding to L-type [Ca2+] channel dihydropyridine site in rat cortical membranes at 2 uM (70-80 %); type: cell membranes, Membrane; conditions: probe [3H]nitrendipine
[41] = target: Sodium channel alpha subunits; brain (Types I, II, III) (Rattus norvegicus) (UniProt P04775+P04774+P08104); conditions: Forebrain, Membrane, 2 uM
CHO-K1 [42] = assay: Percentage agonism of compound towards thyroid response element (TRAF alpha) in CHO-K1 cells at 10 uM; Partial agonist; type: functional, Cricetulus griseus

Chain of Sodium channel alpha subunits; brain (Types I, II, III) (Rattus norvegicus) (P04775 whole entry, looked up, other chains not shown): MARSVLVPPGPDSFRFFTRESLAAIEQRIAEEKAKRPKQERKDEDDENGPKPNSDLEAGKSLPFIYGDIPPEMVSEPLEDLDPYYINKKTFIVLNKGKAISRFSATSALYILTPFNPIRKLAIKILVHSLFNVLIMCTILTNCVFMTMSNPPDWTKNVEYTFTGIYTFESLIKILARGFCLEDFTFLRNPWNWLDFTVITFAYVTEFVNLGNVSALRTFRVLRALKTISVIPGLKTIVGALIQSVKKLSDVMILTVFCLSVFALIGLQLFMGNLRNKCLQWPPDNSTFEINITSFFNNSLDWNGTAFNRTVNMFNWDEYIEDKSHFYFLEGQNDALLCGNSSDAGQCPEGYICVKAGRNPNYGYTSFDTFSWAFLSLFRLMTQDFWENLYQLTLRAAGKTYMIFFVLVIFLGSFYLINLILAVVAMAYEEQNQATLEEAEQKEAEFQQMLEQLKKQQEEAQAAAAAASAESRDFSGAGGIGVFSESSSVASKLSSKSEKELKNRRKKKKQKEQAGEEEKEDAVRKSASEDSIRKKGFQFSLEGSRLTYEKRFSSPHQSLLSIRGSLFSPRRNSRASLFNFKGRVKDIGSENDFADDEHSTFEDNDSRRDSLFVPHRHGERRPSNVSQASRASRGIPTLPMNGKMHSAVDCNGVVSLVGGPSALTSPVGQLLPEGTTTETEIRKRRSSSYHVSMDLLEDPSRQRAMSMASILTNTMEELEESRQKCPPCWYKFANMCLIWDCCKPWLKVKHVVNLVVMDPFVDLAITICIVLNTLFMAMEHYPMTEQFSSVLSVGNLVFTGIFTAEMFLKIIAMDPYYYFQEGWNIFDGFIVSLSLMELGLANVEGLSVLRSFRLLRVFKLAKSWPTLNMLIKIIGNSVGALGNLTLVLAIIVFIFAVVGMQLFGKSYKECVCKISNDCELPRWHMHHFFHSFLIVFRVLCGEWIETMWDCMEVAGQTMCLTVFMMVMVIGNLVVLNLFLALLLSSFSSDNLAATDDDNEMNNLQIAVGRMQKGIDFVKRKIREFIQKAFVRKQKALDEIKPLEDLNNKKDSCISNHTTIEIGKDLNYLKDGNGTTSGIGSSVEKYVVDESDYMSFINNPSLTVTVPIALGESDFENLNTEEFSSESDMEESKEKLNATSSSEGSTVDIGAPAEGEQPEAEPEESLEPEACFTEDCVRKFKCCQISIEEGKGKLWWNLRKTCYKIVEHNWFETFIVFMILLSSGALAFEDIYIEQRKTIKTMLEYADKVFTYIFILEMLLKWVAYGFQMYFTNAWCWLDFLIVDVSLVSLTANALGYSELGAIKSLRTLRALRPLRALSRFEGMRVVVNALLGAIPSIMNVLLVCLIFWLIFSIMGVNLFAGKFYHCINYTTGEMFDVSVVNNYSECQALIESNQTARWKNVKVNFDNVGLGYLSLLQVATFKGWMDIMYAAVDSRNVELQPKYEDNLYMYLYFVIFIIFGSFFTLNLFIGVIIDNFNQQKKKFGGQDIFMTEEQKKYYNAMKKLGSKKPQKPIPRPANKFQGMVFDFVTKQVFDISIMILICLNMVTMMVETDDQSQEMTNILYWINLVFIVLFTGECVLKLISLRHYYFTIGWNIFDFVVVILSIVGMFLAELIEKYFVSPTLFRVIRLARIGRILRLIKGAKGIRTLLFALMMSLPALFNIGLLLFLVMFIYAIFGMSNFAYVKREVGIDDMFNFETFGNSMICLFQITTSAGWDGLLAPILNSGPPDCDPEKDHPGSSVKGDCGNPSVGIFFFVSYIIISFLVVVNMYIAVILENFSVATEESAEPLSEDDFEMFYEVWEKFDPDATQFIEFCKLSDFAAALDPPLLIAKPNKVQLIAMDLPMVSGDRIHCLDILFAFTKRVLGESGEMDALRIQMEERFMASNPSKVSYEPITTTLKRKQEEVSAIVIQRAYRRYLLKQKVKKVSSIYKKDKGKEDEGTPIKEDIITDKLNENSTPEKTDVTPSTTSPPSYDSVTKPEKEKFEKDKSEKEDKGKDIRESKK
Chain of Sodium channel alpha subunits; brain (Types I, II, III) (Rattus norvegicus) (P08104 whole entry, looked up, other chains not shown): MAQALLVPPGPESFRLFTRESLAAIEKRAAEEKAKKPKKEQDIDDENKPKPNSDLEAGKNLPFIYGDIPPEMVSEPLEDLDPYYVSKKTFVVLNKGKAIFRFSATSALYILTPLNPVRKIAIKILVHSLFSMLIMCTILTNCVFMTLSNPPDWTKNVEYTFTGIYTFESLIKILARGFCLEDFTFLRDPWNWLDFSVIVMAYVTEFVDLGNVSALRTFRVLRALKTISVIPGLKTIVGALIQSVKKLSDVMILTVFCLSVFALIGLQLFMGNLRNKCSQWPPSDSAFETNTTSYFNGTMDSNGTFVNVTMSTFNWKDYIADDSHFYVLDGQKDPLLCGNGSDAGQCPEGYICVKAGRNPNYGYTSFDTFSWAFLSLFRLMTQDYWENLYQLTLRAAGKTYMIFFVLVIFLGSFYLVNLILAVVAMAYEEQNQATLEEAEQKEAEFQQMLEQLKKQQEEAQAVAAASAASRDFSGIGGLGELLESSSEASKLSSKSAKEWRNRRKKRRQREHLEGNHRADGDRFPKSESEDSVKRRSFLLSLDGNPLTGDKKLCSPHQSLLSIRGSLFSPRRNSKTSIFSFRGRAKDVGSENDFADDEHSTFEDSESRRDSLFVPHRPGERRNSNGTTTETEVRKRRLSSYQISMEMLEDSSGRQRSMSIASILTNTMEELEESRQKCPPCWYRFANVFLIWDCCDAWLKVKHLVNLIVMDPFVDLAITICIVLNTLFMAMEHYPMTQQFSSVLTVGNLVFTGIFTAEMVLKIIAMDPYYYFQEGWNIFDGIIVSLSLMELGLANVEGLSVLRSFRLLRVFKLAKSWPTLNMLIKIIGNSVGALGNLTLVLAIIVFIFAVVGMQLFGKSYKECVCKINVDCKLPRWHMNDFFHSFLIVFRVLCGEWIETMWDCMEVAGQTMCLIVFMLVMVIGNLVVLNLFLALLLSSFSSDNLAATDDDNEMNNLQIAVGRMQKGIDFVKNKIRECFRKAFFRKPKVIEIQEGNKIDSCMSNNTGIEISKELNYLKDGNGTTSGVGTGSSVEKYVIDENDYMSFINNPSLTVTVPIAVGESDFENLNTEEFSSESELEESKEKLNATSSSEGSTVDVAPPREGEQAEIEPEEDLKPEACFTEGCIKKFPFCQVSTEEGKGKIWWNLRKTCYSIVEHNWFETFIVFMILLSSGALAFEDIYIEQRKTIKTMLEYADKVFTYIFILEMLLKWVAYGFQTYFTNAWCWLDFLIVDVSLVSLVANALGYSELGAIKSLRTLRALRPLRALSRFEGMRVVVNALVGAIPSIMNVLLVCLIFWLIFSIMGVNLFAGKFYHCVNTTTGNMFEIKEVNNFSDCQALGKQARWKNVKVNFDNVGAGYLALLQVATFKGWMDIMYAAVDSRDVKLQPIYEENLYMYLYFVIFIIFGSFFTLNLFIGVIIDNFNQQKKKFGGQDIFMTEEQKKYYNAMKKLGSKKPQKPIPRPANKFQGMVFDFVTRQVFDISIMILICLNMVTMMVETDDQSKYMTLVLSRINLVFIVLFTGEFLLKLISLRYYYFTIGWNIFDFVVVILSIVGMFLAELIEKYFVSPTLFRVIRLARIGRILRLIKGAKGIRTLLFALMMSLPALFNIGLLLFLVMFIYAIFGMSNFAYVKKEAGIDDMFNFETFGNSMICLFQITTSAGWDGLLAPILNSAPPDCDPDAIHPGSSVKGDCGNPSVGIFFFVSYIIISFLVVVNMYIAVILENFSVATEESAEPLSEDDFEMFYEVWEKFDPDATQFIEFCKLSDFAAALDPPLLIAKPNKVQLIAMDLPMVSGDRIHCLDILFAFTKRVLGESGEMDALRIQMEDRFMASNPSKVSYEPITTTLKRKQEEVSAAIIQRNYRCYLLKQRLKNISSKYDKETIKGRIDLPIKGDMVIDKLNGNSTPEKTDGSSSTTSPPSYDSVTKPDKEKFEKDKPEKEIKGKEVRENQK

Compound	ALAT levels (Rattus norvegicus [2]) [IU/l]	EC50 (CHO-K1 [3]) [µM]	ASAT levels (Rattus norvegicus [5]) [IU/l]	Cholestrol levels (Rattus norvegicus [6]) [g/L]	Cholestrol levels (Rattus norvegicus [7]) [g/L]	Thyroid status (Rattus norvegicus [9]) [ng/mL]	Thyroid status (Rattus norvegicus [10]) [nM l-1]	Thyroid status (Rattus norvegicus [11]) [nM l-1]	IC50 (CHO-K1 [12]) [µM]	ALAT levels (Rattus norvegicus [13]) [IU/l]	EC50 (CHO-K1 [14]) [µM]	ALAT levels (Rattus norvegicus [15]) [IU/l]	ALAT levels (Rattus norvegicus [16]) [IU/l]	Thyroid status (Rattus norvegicus [17]) [nM l-1]	Thyroid status (Rattus norvegicus [18]) [nM l-1]	IC50 [19] [µM]	ASAT levels (Rattus norvegicus [20]) [IU/l]	Thyroid status (Rattus norvegicus [21]) [nM l-1]	Cholestrol levels (Rattus norvegicus [22]) [g/L]	IC50 (CHO-K1 [23]) [µM]	other results
Cc1oc2ccccc2c1Cc1cc(I)c(OCC(=O)O)c(I)c1	43	> 10	114	0.63	0.78	16.6	37.1	35.1	2.2	54	> 10	67	30	0.52	0.52	4.5	111	0.51	0.93	4.1	APD90 (Cavia porcellus [1]): 219 ms; ERP (Cavia porcellus [4]): 223 ms; APD50 (Cavia porcellus [8]): 182 ms; Vmax (Cavia porcellus [24]): 192 V s-1; ASAT levels (Rattus norvegicus [25]): 102 IU/l; Cholestrol levels (Rattus norvegicus [26]): 0.69 g/L; Ratio (Cavia porcellus [27]): 1.22; Thyroid status (Rattus norvegicus [28]): 16.6 ng/mL; ALAT levels (Rattus norvegicus [29]): 21 IU/l; Thyroid status (Rattus norvegicus [30]): 46.6 nM l-1; ASAT levels (Rattus norvegicus [31]): 101 IU/l; ALAT levels (Rattus norvegicus [32]): 40 IU/l; ASAT levels (Rattus norvegicus [33]): 104 IU/l; ASAT levels (Rattus norvegicus [34]): 115 IU/l; Cholestrol levels (Rattus norvegicus [35]): 0.91 g/L; APA (Cavia porcellus [36]): 116 mV; Cholestrol levels (Rattus norvegicus [37]): 0.68 g/L; Thyroid status (Rattus norvegicus [38]): 14.2 ng/mL; IC50 [39]: 5.1 µM
CCCCc1oc2ccccc2c1C(=O)c1cc(I)c(OCCN(CC)CC)c(I)c1 [AMIODARONE]	62	–	133	0.77	1.26	16.1	43.2	43.9	–	284	–	103	35	0.66	0.28	–	131	0.66	1.12	–	ASAT levels (Rattus norvegicus [25]): 550 IU/l; Cholestrol levels (Rattus norvegicus [26]): 1.18 g/L; Thyroid status (Rattus norvegicus [28]): 11.2 ng/mL; ALAT levels (Rattus norvegicus [29]): 23 IU/l; Thyroid status (Rattus norvegicus [30]): 22.3 nM l-1; ASAT levels (Rattus norvegicus [31]): 109 IU/l; ALAT levels (Rattus norvegicus [32]): 62 IU/l; inhibition at 2 µM [40]: 80%; ASAT levels (Rattus norvegicus [33]): 110 IU/l; ASAT levels (Rattus norvegicus [34]): 2052 IU/l; inhibition [41]: 70%; Cholestrol levels (Rattus norvegicus [35]): 1.39 g/L; Cholestrol levels (Rattus norvegicus [37]): 0.89 g/L; Thyroid status (Rattus norvegicus [38]): 13.9 ng/mL
CCCCc1oc2ccccc2c1C(=O)c1cc(I)c(OCC(=O)O)c(I)c1	–	> 10	–	–	–	–	–	–	> 10	–	> 10	–	–	–	–	1.4	–	–	–	> 10	–
Cc1oc2ccccc2c1C(=O)c1cc(I)c(OCC(=O)O)c(I)c1	–	0.45	–	–	–	–	–	–	> 10	–	1.7	–	–	–	–	0.82	–	–	–	> 10	Effect (CHO-K1 [42]): 56%; IC50 [39]: 0.48 µM
